Laboratory results taken from ChEMBL document CHEMBL1136528, “Novel pyrrolyllactone and pyrrolyllactam indolinones as potent cyclin-dependent kinase 2 inhibitors” (Bioorg Med Chem Lett, 2003).

Legend:
[1] = target: Cyclin-dependent kinase 2 (Homo sapiens, UniProt P24941); assay: Inhibitory activity against Cyclin-dependent kinase 2
[2] = target: Vascular endothelial growth factor receptor 2 (Homo sapiens, UniProt P35968); assay: Inhibitory activity was tested against FLK kinase
[3] = target: Platelet-derived growth factor receptor beta (Homo sapiens, UniProt P09619); assay: Inhibitory activity was tested against Platelet-derived growth factor receptor beta
[4] = target: Proto-oncogene tyrosine-protein kinase Src (Homo sapiens, UniProt P12931); assay: Inhibitory activity was tested against Src protein tyrosine kinase
Proto-oncogene tyrosine-protein kinase Src, sequence (P12931 2-536 limits assumed): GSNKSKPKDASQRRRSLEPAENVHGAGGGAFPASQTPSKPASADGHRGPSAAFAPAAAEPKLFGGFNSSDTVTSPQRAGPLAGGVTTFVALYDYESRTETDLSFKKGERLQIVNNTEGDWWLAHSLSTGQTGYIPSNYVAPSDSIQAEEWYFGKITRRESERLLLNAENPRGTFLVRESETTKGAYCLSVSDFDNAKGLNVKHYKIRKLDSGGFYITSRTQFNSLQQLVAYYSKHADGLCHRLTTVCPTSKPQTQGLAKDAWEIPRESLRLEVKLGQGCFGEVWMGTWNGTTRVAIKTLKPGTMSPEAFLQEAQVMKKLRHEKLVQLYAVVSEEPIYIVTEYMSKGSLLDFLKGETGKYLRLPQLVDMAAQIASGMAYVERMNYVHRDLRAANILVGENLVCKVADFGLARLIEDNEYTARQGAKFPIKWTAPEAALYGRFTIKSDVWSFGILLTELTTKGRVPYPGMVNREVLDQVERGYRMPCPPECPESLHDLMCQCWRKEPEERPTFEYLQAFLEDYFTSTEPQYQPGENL

Platelet-derived growth factor receptor beta, sequence (P09619 whole entry): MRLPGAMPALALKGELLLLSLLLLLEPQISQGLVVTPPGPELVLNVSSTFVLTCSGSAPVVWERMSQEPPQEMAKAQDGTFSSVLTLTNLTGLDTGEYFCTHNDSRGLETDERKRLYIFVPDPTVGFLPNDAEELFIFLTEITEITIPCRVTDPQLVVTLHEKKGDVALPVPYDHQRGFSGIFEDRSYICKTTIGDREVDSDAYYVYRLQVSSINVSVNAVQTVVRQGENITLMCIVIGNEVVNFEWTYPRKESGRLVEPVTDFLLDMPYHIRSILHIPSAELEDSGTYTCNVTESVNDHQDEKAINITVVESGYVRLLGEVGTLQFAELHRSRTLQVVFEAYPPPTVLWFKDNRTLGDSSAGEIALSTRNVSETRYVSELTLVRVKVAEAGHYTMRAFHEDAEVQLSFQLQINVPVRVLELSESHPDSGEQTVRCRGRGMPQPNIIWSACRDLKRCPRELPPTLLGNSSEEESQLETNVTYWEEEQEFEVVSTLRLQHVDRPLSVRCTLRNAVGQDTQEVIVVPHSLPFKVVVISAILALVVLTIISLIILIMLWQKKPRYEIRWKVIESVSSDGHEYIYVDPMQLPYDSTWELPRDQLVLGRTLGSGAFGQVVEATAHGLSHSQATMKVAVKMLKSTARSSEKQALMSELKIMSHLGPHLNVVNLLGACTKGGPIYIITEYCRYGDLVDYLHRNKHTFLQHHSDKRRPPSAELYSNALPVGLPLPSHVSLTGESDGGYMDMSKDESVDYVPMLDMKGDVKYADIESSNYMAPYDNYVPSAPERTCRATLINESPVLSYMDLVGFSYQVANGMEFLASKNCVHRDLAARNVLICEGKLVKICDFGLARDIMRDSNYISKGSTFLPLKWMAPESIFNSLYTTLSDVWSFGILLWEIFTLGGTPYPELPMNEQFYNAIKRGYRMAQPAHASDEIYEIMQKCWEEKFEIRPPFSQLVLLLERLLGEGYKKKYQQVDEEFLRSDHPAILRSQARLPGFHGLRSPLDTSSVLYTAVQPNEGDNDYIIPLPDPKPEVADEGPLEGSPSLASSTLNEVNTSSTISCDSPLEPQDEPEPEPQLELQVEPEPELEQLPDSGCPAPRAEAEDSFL
Vascular endothelial growth factor receptor 2, sequence (P35968 whole entry): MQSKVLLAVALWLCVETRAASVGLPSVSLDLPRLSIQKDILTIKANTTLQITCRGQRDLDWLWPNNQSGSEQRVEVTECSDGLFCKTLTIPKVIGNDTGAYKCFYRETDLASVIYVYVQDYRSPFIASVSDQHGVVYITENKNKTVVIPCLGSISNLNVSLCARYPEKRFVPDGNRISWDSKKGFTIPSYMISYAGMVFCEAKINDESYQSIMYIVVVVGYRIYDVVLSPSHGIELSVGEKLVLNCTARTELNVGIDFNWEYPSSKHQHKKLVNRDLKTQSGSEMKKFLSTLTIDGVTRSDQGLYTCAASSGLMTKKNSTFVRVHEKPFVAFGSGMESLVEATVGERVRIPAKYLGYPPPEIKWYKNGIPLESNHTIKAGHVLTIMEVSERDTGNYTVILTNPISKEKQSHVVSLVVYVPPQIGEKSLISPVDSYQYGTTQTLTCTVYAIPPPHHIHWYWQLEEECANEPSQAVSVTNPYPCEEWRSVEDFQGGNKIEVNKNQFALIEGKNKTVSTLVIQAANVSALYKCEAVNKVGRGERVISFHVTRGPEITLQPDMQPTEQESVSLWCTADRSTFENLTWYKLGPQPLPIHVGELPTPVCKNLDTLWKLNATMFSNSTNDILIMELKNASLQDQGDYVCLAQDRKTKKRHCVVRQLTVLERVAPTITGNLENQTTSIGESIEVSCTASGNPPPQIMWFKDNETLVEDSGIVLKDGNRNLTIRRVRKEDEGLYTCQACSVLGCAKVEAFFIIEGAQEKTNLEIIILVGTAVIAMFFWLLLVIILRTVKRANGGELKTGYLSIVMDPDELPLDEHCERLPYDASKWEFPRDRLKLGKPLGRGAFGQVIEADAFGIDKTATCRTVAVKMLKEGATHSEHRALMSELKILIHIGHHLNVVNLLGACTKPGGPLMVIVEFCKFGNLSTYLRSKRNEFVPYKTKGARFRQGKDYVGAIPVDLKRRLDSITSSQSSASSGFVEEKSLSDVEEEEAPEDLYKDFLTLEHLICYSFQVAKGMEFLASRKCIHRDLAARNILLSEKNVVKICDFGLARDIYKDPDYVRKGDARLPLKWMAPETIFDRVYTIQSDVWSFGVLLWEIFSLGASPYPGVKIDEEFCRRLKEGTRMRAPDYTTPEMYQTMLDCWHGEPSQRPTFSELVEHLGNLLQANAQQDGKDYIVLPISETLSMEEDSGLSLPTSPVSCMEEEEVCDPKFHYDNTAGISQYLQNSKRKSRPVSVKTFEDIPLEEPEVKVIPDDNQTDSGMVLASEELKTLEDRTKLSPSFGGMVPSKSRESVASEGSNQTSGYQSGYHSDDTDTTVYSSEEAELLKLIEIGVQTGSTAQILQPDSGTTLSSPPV

| IC50 [1] [nM] | IC50 [2] [nM] | IC50 [3] [nM] | IC50 [4] [nM] | Compound |
| --- | --- | --- | --- | --- |
| 5700 | – | – | – | O=C1Nc2cc(-c3ccccc3)ccc2/C1=C/c1[nH]cc2c1CCNC2=O |
| 88 | > 20000 | 2100 | > 20000 | O=C1Nc2ccc(Cl)cc2/C1=C/c1[nH]cc2c1CCOC2=O |
| 40 | > 20000 | > 20000 | > 20000 | COc1ccc2c(c1)/C(=C/c1[nH]cc3c1CCOC3=O)C(=O)N2 |
| 49 | – | – | – | O=C1Nc2cccc(C3CCNCC3)c2/C1=C/c1[nH]cc2c1CCNC2=O |
| 9 | 490 | 1100 | 1100 | O=C1Nc2cccc(C3CCNCC3)c2/C1=C/c1[nH]cc2c1CCOC2=O |
| 270 | > 20000 | > 20000 | > 20000 | Cc1cccc2c1/C(=C/c1[nH]cc3c1CCOC3=O)C(=O)N2 |
| 4 | 6600 | > 20000 | > 20000 | CNS(=O)(=O)c1ccc2c(c1)/C(=C/c1[nH]cc3c1CCOC3=O)C(=O)N2 |
| 340 | – | – | – | O=C1Nc2cccc(CCO)c2/C1=C/c1[nH]cc2c1CCNC2=O |
| 4 | 6200 | > 20000 | > 20000 | O=C1Nc2ccc(C(=O)O)cc2/C1=C/c1[nH]cc2c1CCOC2=O |
| > 10000 | 2000 | 1100 | 8400 | O=C1Nc2cc(-c3ccccc3)ccc2/C1=C/c1[nH]cc2c1CCOC2=O |
| 30 | 1200 | > 20000 | > 20000 | O=C1Nc2cccc(CCO)c2/C1=C/c1[nH]cc2c1CCOC2=O |
| 530 | – | – | – | O=C1Nc2ccc(Br)cc2/C1=C/c1[nH]cc2c1CCNC2=O |
| 68 | – | – | – | O=C1Nc2ccc(C(=O)O)cc2/C1=C/c1[nH]cc2c1CCNC2=O |
| 12 | 6600 | > 20000 | 13000 | NS(=O)(=O)c1ccc2c(c1)/C(=C/c1[nH]cc3c1CCOC3=O)C(=O)N2 |
| 300 | – | – | – | O=C1Nc2ccc(F)cc2/C1=C/c1[nH]cc2c1CCNC2=O |
| 1500 | > 20000 | 1400 | > 20000 | COc1ccc2c(c1)NC(=O)/C2=C\c1[nH]cc2c1CCOC2=O |
| 33 | > 20000 | > 20000 | > 20000 | CN(C)S(=O)(=O)c1ccc2c(c1)/C(=C/c1[nH]cc3c1CCOC3=O)C(=O)N2 |
| 82 | 10000 | > 20000 | > 20000 | O=C1Nc2ccc(F)cc2/C1=C/c1[nH]cc2c1CCOC2=O |
| 9 | – | – | – | CNS(=O)(=O)c1ccc2c(c1)/C(=C/c1[nH]cc3c1CCNC3=O)C(=O)N2 |
| 68 | – | – | – | CN(C)S(=O)(=O)c1ccc2c(c1)/C(=C/c1[nH]cc3c1CCNC3=O)C(=O)N2 |
| 64 | 6700 | > 20000 | > 20000 | CC(C)NS(=O)(=O)c1ccc2c(c1)/C(=C/c1[nH]cc3c1CCOC3=O)C(=O)N2 |
| 190 | 11000 | 18000 | > 20000 | O=C1Nc2ccc(Br)cc2/C1=C/c1[nH]cc2c1CCOC2=O |
| 250 | – | – | – | COc1ccc2c(c1)/C(=C/c1[nH]cc3c1CCNC3=O)C(=O)N2 |
